The data set can be described thus: Solid stability test of crystal forms (high temperature, high humidity, light radiation, accelerated conditions; appearance, content, impurities, crystal form by XRPD). It counts as physicochemical. To be noted: for change of crystal form (XRPD detection): after the solid stability test conditions; for XPRD: crystal form found. An excerpt:
High Performance Liquid Chromatograph (HPLC) The analytic method is as follows: [table] [table] […] The sample was placed under high temperature, high humidity and acceleration conditions. The bottle was sealed with an aluminum foil, and some small holes were pierced on the aluminum foil to ensure that the sample could fully contact with the ambient air. The sample placed under light radiation was placed upright at room temperature and open to the air. The sample was exposed to a light source, and radiated with sufficient energy prior to taking samples for detection. Samples were taken at various time points for analysis, and the detection results were compared with the initial detection results obtained at Day 0. The investigation items include appearance, content and impurities. […] The sample was placed under high temperature, high humidity and acceleration conditions. The bottle was sealed with an aluminum foil, and some small holes were pierced on the aluminum foil to ensure that the sample could fully contact with the ambient air. The sample placed under light radiation was placed upright at room temperature and open to the air. The sample was exposed to a light source, and radiated with sufficient energy prior to taking samples for detection. Samples were taken at various time points for analysis, and the detection results were compared with the initial detection results obtained at Day 0. The investigation items include appearance, content and impurities. […] Samples were taken at various time points, and the test results were compared with the initial test results obtained at Day 0. […] The investigation items include appearance, impurities, and crystal forms.

Where [1] appears, read: Acceleration test (40° C./relative humidity 75%, open), Day 5.
[2] abbreviates: Acceleration test (40° C./relative humidity 75%, open), Day 30.
[3] abbreviates: High humidity (room temperature/relative humidity 92.5%, open), Day 5.
[4] abbreviates: High humidity (room temperature/relative humidity 92.5%, open), Day 30.
Setting [5] is: High temperature (60° C., open), Day 5.
Where [6] appears, read: High temperature (60° C., open), Day 30.
Where [7] appears, read: Light radiation (total illumination 1.2 × 10^6 Lux · hr), Day 5.
[8] abbreviates: Light radiation (total illumination 1.2 × 10^6 Lux · hr), Day 12.
The mark [9] stands for this setting: Acceleration test (40° C./relative humidity 75%, open), Day 10.
Setting [10] is: High humidity (room temperature/relative humidity 92.5%, open), Day 10.
Setting [11] is: High temperature (60° C., open), Day 10.
Setting [12] is: Light radiation (total illumination 1.2 × 10^6 Lux · hr), Day 10.
Setting [13] is: high temperature, high humidity and accelerated experiments.
Setting [14] is: Acceleration test (40° C./relative humidity 75%, open), Day 12.
[15] abbreviates: High humidity (room temperature/relative humidity 92.5%, open), Day 12.
[16] abbreviates: High temperature (60° C., open), Day 12.

The structures appear in SMILES notation.

Regarding `O=C(O)[C@H]1C2CCC(CC2)[C@@H]1Nc1nc(-c2n[nH]c3ncc(F)cc23)nc(C2CC2)c1F` [crystal form G], the “change of crystal form (XRPD detection)” value is “does not change”. In addition, the Appearance result under setting [1] is “Off-white solid”. Besides, under setting [2], the Appearance result is “Off-white solid”, the “Total Impurities (%)” value turned out to be 0.35% and the XPRD result is “Crystal form G”. For the setting “Day 0 (initial)”, the Appearance result is given as “Off-white solid”, the “Total Impurities (%)” value is 0.35% and the XPRD entry is reported as “Crystal form G”. Also, the Appearance entry under setting [3] is “Off-white solid”. Under setting [4], the Appearance entry was “Off-white solid”, the “Total Impurities (%)” value was 0.33% and the XPRD entry is reported as “Crystal form G”. Under setting [5], the Appearance result is listed as “Off-white solid”. Further, under setting [6], the Appearance entry is on record as “Off-white solid”, the “Total Impurities (%)” value is 0.42% and the XPRD entry is “Crystal form G”. For the same compound, the Appearance entry under setting [7] was “Off-white solid”. Under setting [8], the Appearance result was “Yellowish solid”, the “Total Impurities (%)” value is given as 0.54% and the XPRD result is “Crystal form G”. Where the note is “high humidity and accelerated experiments”, the “change in total impurity content” value was “almost no change”. Besides, the “change in total impurity content” value (high temperature) is listed as “relatively small change”.

For `O=C(O)[C@H]1C2CCC(CC2)[C@@H]1Nc1nc(-c2n[nH]c3ncc(F)cc23)nc(C2CC2)c1F` (single isomer, unassigned) [crystal form A], the “change of crystal form (XRPD detection)” value is given as “does not change”. Besides, the Appearance entry under setting [1] is “Off-white solid”. For the same compound, under setting [9], the Appearance result was “Off-white solid”, the “Content (%)” value is 98.36%, the “Total Impurities (%)” value amounted to 1.64% and the XPRD result is “Crystal form A”. Besides, for the setting “Day 0 (initial)”, the Appearance entry was “Off-white solid”, the “Content (%)” value is 98.51%, the “Total Impurities (%)” value was determined as 1.49% and the XPRD entry is “Crystal form A”. For the same compound, the Appearance entry under setting [3] is recorded as “Off-white solid”. Under setting [10], the Appearance result is listed as “Off-white solid”, the “Content (%)” value is recorded as 98.25%, the “Total Impurities (%)” value worked out at 1.75% and the XPRD entry is given as “Crystal form A”. In addition, under setting [5], the Appearance result is “Off-white solid”. Under setting [11], the Appearance result is “Off-white solid”, the “Content (%)” value is 98.25%, the “Total Impurities (%)” value is reported as 1.75% and the XPRD entry is “Crystal form A”. The Appearance entry under setting [7] was “Off-white solid”. Under setting [12], the Appearance result is “Off-white solid”, the “Content (%)” value is on record as 96.89%, the “Total Impurities (%)” value is listed as 3.11% and the XPRD result is recorded as “Crystal form A”. In addition, the “change in total impurity content” value under setting [13] is recorded as “relatively small change”.

Take `O=C(O)[C@H]1C2CCC(CC2)[C@@H]1Nc1nc(-c2n[nH]c3ncc(F)cc23)nc(C2CC2)c1F` [crystal form H]: the “change of crystal form (XRPD detection)” value is reported as “does not change”. Under setting [1], the Appearance entry is “Off-white solid”. Under setting [2], the Appearance result is recorded as “Off-white solid”, the “Total Impurities (%)” value stood at 2.0% and the XPRD entry was “Crystal form H”. For the same compound, where the note is “Day 0 (initial)”, the Appearance entry is listed as “Off-white solid”, the “Total Impurities (%)” value was 1.8% and the XPRD entry is “Crystal form H”. For the same compound, under setting [3], the Appearance entry is “Off-white solid”. In addition, under setting [4], the Appearance result is “Off-white solid”, the “Total Impurities (%)” value is 1.9% and the XPRD entry is given as “Crystal form H”. Further, the Appearance result under setting [5] is reported as “Off-white solid”. Moreover, under setting [6], the Appearance entry was “Off-white solid”, the “Total Impurities (%)” value was determined as 2.0% and the XPRD result is recorded as “Crystal form H”. Moreover, the Appearance result under setting [7] is listed as “Off-white solid”. Under setting [8], the Appearance result is on record as “Yellowish solid”, the “Total Impurities (%)” value worked out at 1.9% and the XPRD entry is listed as “Crystal form H”. The “change in total impurity content” value (high temperature, high humidity, light radiation and accelerated experiments) was “almost no change”.

As for `O=C(O)[C@H]1C2CCC(CC2)[C@@H]1Nc1nc(-c2n[nH]c3ncc(F)cc23)nc(C2CC2)c1F` [crystal form F], the “change of crystal form (XRPD detection)” value is given as “does not change”. Moreover, under setting [1], the Appearance entry is “Off-white solid”. In addition, under setting [14], the Appearance result is on record as “Off-white solid”, the “Total Impurities (%)” value was 1.9% and the XPRD result is “Crystal form F”. For the setting “Day 0 (initial)”, the Appearance result is listed as “Off-white solid”, the “Total Impurities (%)” value is 1.7% and the XPRD result is “Crystal form F”. Besides, the Appearance result under setting [3] is recorded as “Off-white solid”. Under setting [15], the Appearance entry was “Off-white solid”, the “Total Impurities (%)” value was found to be 1.9% and the XPRD entry is reported as “Crystal form F”. Moreover, under setting [5], the Appearance entry is “Off-white solid”. Moreover, under setting [16], the Appearance entry is “Off-white solid”, the “Total Impurities (%)” value came to 1.9% and the XPRD entry was “Crystal form F”. In addition, the Appearance result under setting [7] is “Off-white solid”. In addition, under setting [8], the Appearance result is “Off-white solid”, the “Total Impurities (%)” value came to 1.8% and the XPRD result was “Crystal form F”. In addition, the “change in total impurity content” value under setting [13] was “almost no change”.

Take `O=C(O)[C@H]1C2CCC(CC2)[C@@H]1Nc1nc(-c2n[nH]c3ncc(F)cc23)nc(C2CC2)c1F` (single isomer, unassigned) [crystal form B]: the “change of crystal form (XRPD detection)” value is recorded as “does not change”. Further, for the setting “Day 0 (initial)”, the Appearance result is reported as “Off-white”, the “Content (%)” value is 98.89%, the “Total Impurities (%)” value is on record as 1.11% and the XPRD result was “Crystal form B”. Further, under setting [3], the Appearance entry is “Off-white”, the “Content (%)” value is listed as 98.92% and the “Total Impurities (%)” value stood at 1.08%. Under setting [10], the Appearance entry is listed as “Off-white”, the “Content (%)” value came to 98.90%, the “Total Impurities (%)” value came to 1.10% and the XPRD result is reported as “Crystal form B”. For the same compound, under setting [5], the Appearance result is reported as “Off-white”, the “Content (%)” value is 98.91% and the “Total Impurities (%)” value stood at 1.09%. Besides, under setting [11], the Appearance result is “Off-white”, the “Content (%)” value is reported as 98.89%, the “Total Impurities (%)” value amounted to 1.11% and the XPRD result is “Crystal form B”. Further, the Appearance entry under setting [7] is “Off-white”. Besides, under setting [12], the Appearance result is given as “Off-white”, the “Content (%)” value is recorded as 98.03%, the “Total Impurities (%)” value is reported as 1.97% and the XPRD result is reported as “Crystal form B”. Besides, the “change in total impurity” value (accelerated experiments) is listed as “relatively small change”. Moreover, under “high temperature, high humidity”, the “change in total impurity content” value was “almost no change”.

The values are drawn from patent US11535613B2 (GUANGDONG RAYNOVENT BIOTECH CO., LTD., priority 2018, dated 2022).
